Like-named read-outs stand apart in the source and are kept apart here.
What was measured:
[1] = Rev. Latinoam. Microbiol. 1, 225-232 (1958); cited from earlier work
[2] = Blood sugar lowering effect of brazilin in streptozotocin diabetic SD rats; assay type: in vivo
Procedure: By intraperitoneally administering streptozotocin (70 mg per 1 kg body weight in 0.1M of citrate buffer solution, pH 4.0) diabetes was induced in SD rats. 20 days after the injection of streptozotocin the blood sugar values of the laboratory animals were measured. The hyperglycemic rats were divided into two groups, viz. into a control group and a test group. For 10 days a dose of 110 mg of brazilin per kg body weight was daily administered to the animals of the test group. Then, the blood sugar values were measured again.

[3] = system: fat pads isolated from rats; test: Glucose oxidation: formation of 14CO2 in fat pads isolated from rats; assay type: in vivo
Excerpt: Insulin-dependent diabetes mellitus is frequently accompanied by insulin resistance. Frequently an impaired insulin action is also observed with streptozotocin induced diabetic rats. Such an insulin resistance is particularly also attributed to postreceptor defects.
With (a) untreated (normal) control animals (rats), (b) diabetic rats, and (c) diabetic brazilin treated rats glucose oxidation and lipogenesis were investigated (by means of the esterified lipids and the free fatty acids). Diabetes was induced by intravenous administration of streptozotocin (40 mg/kg live weight). Brazilin was administered intraperitoneally for 15 days (100 mg/kg body weight). Within the same period the same volume of saline solution was administered to the untreated animals of the control group.
For determining the effects of brazilin administration on the glucose oxidation, the method described by Winegard et al. (J. Biol. Chem. 233, 267 (1958)) was used, using ^14 C glucose (1-^14 C-glucose).

[4] = Increase of the peripheral insulin action in diabetic mice; assay type: in vivo
Procedure: Diabetic mice were divided into a control group and a test group. A dose of 100 mg of brazilin per kg body weight was daily administered to the animals of the test group; instead of brazilin, the same amount of saline solution was injected intraperitoneally to the animals of the control group.
After 30 test days, the body weight of the animals of the test group was higher and the blood sugar values of these animals were lower as compared to the diabetic animals of the control group.
On the 30th test day, the animals were made to fast for 5 h; thereupon, they were injected intravenously with 0.46 mU/g of NPH insulin. Then, the blood sugar values were measured at respective intervals of 5 min.

insulin receptors = test: 125I-insulin binding to erythrocytes of brazilin treated diabetic mice
Procedure: For interpreting these findings, further tests were made with the aim to find out whether brazilin changes the affinity of the insulin receptors or can possibly increase the number of the insulin receptors.
From the laboratory animals of the above-mentioned control group (diabetic mice) and the test group (diabetic brazilin treated mice) erythrocytes (2.6×10^9 /ml) were taken, ^125 I-insulin was bound thereto (85 pM^125 I), and thereupon incubated in the presence of increasing amounts of unlabelled insulin (32 pM to 1.8 / μm) at 15° C. for 120 min. The amount of specifically bound ^125 I-insulin was then determined by subtracting the non-specifically bound insulin (10 ng/ml). The results obtained are shown in the graph of FIG. 6.

[5] = system: erythrocyte deformability; test: Erythrocyte deformability (filtration rate of blood); assay type: in vivo, rats
Procedure: Increased blood viscosity and reduced erythrocyte deformability are typical pathological states of diabetic subjects. The effect of brazilin administration to diabetic laboratory animals (rats) on the blood viscosity and erythrocyte deformability of these animals was examined.
For administering brazilin, the laboratory animals were daily injected intraperitoneally with a dose of 100 mg of brazilin per kg body weight for 10 days. For inducing diabetes, a dose of 175 mg of alloxan per kg body weight was administered intraperitoneally.
For determining the erythrocyte deformability, the filtration rate of blood of the various laboratory animals containing approximately 4.9×10^12 erythrocytes per l was determined under common, standardized conditions.

[6] = system: platelet aggregation in diabetic human plasma; test: Platelet aggregation in diabetic human plasma induced by ADP; assay type: cell-based
Procedure: (§1) The platelet aggregation was determined by a tubimetric method in a dual-channel aggregometer, assuming that a platelet-poor plasma represented 100% aggregation and that a platelet-rich plasma represented 0% aggregation. Each aggregometer tube was charged with 40 μl of platelet-rich plasma and 50 μl of test sample solution. The mixture was incubated at 37° C. for 2 min., whereupon 50 μl of ADP solution were added. Percent inhibition of the platelet aggregation caused by the test sample solution was calculated as follows: [formula]

[7] = Planta Med. 31, 214-220 (1977); cited from earlier work
[8] = system: lipid peroxidation in the mitochondria of rat liver; conditions: Arch. Pharm. Res. 7, 63-64, 1984; cited from earlier work
plasmalipid = conditions: spontaneously hypertensive rats; Fette-Seifen-Anstrichmittel 87, 74-76 (1985); cited from earlier work
[9] = system: platelet aggregation in normal human plasma; test: Platelet aggregation in normal human plasma induced by ADP; assay type: cell-based; conditions: for T/min, Aggregation (first value) / Tmax, Aggregation (first value): control 75.1; for activity at 1000 µM / inhibition at 1000 µM / activity at 100 µM / inhibition at 100 µM: Homo sapiens, Platelet; for activity at 1000 µM / activity at 100 µM: control 100
Procedure: as §1

[10] = diabetic mice, 100 mg/kg daily, 30 days

## Oc1ccc2c(c1)OC[C@]1(O)Cc3cc(O)c(O)cc3[C@H]21 [brazilin]
[1]
  antibacterial effect: antibacterial effect
[2]; diabetic rats, 30 days after onset of diabetes, 110 mg/kg daily 10 days, before treatment (20 days) 266 ± 16.7, diabetic control 337 ± 45.6
  Blood sugar: 165 ± 42.7 mg/100 ml
[2]; normal rats, brazilin treated, 30 days, normal control 79 ± 22.2
  Blood sugar: 77 ± 20.3 mg/100 ml
[2]; streptozotocin diabetic rats, 110 mg/kg daily
  lowering of the blood sugar values: significant lowering of the blood sugar values
[3]; diabetic rats + brazilin
  restoration of initial CO2 production, basal: 74.6%
[3]; diabetic rats + brazilin 100 mg/kg i.p. 15 days, n=8, P < 0.01 vs. diabetic control, diabetic 109.1, normal 172.8
  Glucose→CO2, basal: 156.6 ± 14.7 nmol/100 mg tissue/120 min
[3]; diabetic rats + brazilin, insulin 25 ng/ml
  restoration of initial CO2 production, insulin stimulated: 14.5%
[3]; insulin 25 ng/ml, diabetic rats + brazilin, n=8, P < 0.1 vs diabetic control, diabetic 236.6, normal 694.2
  Glucose→CO2, insulin stimulated: 303.1 ± 19.0 nmol/100 mg tissue/120 min
[4]; brazilin treated diabetic mice, 0.46 mU/g NPH insulin, day 30, 5 h fasted (FIG. 5)
  blood sugar after i.v. NPH insulin: marked decrease of the blood sugar values
[4]; [10]
  blood sugar values vs. diabetic control: lower
  body weight vs. diabetic control: higher
Insulin receptors; erythrocytes, 15° C., 120 min, treated vs. control (FIGS. 6, 7)
  affinity of the insulin receptors: no significant affinity differences
Insulin receptors; peripheral erythrocytes, treated vs. control
  number of insulin receptors: increase of the number of the peripheral insulin receptors
[5]; alloxan diabetic rats + brazilin, P < 0.01 vs. untreated and vs. diabetic control (17.4)
  Filtration rate: 19.6 ± 0.4 mL/min
[5]; diabetic rats + brazilin
  effect on filtration rate of diabetic animals: significant increase of the filtration rate
[5]; diabetic rats vs. control group
  effect on erythrocyte deformability: significant increase of the erythrocyte deformability
[5]; normal rats + brazilin 100 mg/kg i.p. 10 days, normal 22.9
  Filtration rate: 23.1 ± 0.3 mL/min
[5]; untreated control group + brazilin
  effect on filtration rate of normal animals: did not signficantly influence the filtration rate
[6]; 10^-3 M, control 78.7
  T/min, Aggregation (first value): 8.75%
  Tmax, Aggregation (first value): 46.3%
[6]; 10^-4 M, control 78.7
  Tmax, Aggregation (first value): 70.0%
[6]; Homo sapiens, Platelet, 10^-3 M, control 100, read-out: Tmax, Aggregation relative to control (second value)
  activity at 1000 µM: 58.8%
[6]; Homo sapiens, Platelet, 10^-3 M, read-out: T/min, Inhibition
  inhibition at 1000 µM: 88.9%
[6]; Homo sapiens, Platelet, 10^-3 M, read-out: Tmax, Inhibition
  inhibition at 1000 µM: 41.2%
[6]; Homo sapiens, Platelet, 10^-4 M, control 100, read-out: Tmax, Aggregation relative to control (second value)
  activity at 100 µM: 88.9%
[6]; Homo sapiens, Platelet, 10^-4 M, read-out: Tmax, Inhibition
  inhibition at 100 µM: 11.1%
[6]; conclusion on Tables 12 and 13
  inhibition of the platelet aggregation: considerable inhibition of the platelet aggregation
[7]
  anti-inflammatory effect: anti-inflammatory effect
[8]
  effect on lipid peroxidation in mitochondria of rat liver: effect on the lipid peroxidation
plasmalipid
  plasmalipid-reducing effect: plasmalipid-reducing effect
[9]; 10^-3 M
  T/min, Aggregation (first value): 21.1%
  Tmax, Aggregation (first value): 31.5%
[9]; 10^-4 M
  T/min, Aggregation (first value): 34.8%
  Tmax, Aggregation (first value): 60.7%
[9]; 10^-3 M, read-out: T/min, Aggregation relative to control (second value)
  activity at 1000 µM: 28.1%
[9]; 10^-3 M, read-out: Tmax, Aggregation relative to control (second value)
  activity at 1000 µM: 41.8%
[9]; 10^-3 M, read-out: T/min, Inhibition
  inhibition at 1000 µM: 71.9%
[9]; 10^-3 M, read-out: Tmax, Inhibition
  inhibition at 1000 µM: 58.2%
[9]; 10^-4 M, read-out: T/min, Aggregation relative to control (second value)
  activity at 100 µM: 46.4%
[9]; 10^-4 M, read-out: Tmax, Aggregation relative to control (second value)
  activity at 100 µM: 80.1%
[9]; 10^-4 M, read-out: T/min, Inhibition
  inhibition at 100 µM: 53.6%
[9]; 10^-4 M, read-out: Tmax, Inhibition
  inhibition at 100 µM: 19.9%

Reference: patent publication US4918099A, “Drug, preparation and use thereof” (priority 1985, dated 1990)
